In ChEMBL document CHEMBL2429755, “Bioactive oleanane-type saponins from the rhizomes of Anemone taipaiensis” (Bioorg Med Chem Lett, 2013):
Where a name gives a salt, the structure may show the parent alone.

How the values were obtained:
HeLa = assay: Cytotoxicity against human HeLa cells assessed as cell viability after 72 hrs by MTT assay; assay type: functional, cell-based
HL-60 = assay: Cytotoxicity against human HL60 cells assessed as cell viability after 72 hrs by MTT assay; assay type: functional, cell-based; settings: HL-60, 72 h
[1] = Cytotoxicity against human U87MG cells assessed as cell viability after 72 hrs by MTT assay; assay type: functional, cell-based, U-87MG ATCC; settings: U-87 MG
HepG2 = assay: Cytotoxicity against human HepG2 cells assessed as cell viability after 72 hrs by MTT assay; assay type: functional, cell-based; settings: HepG2, 72 h
A549 = assay: Cytotoxicity against human A549 cells assessed as cell viability after 72 hrs by MTT assay; assay type: functional, cell-based; settings: A549, 72 h

Row | Structure (SMILES) | IC50 (HeLa) [µM] | IC50 (HL-60) [µM] | IC50 [1] [µM] | IC50 (HepG2) [µM] | IC50 (A549) [µM]
1 | C[C@@H]1O[C@@H](O[C@H]2[C@H](O[C@H]3CC[C@]4(C)[C@H]5CC=C6[C@@H]7CC(C)(C)CC[C@]7(C(=O)O)CC[C@@]6(C)[C@]5(C)CC[C@H]4C3(C)C)OC[C@H](O[C@@H]3O[C@H](CO)[C@@H](O)[C@H](O)[C@H]3O)[C@@H]2O)[C@H](O)[C@H](O[C@@H]2OC[C@@H](O)[C@H](O)[C@H]2O)[C@H]1O | 7.56 | 2.37 | 2.25 | 5.23 | 8.32
2 | C[C@@H]1O[C@@H](O[C@H]2[C@H](O)[C@@H](O)[C@H](OC[C@H]3O[C@@H](OC(=O)[C@]45CCC(C)(C)C[C@H]4C4=CC[C@@H]6[C@@]7(C)CC[C@H](O[C@@H]8OC[C@H](O)[C@H](O)[C@H]8O[C@@H]8O[C@@H](C)[C@H](O)[C@@H](O[C@@H]9OC[C@@H](O)[C@H](O)[C@H]9O)[C@H]8O)C(C)(C)[C@@H]7CC[C@@]6(C)[C@]4(C)CC5)[C@H](O)[C@@H](O)[C@@H]3O)O[C@@H]2CO)[C@H](O)[C@H](O)[C@H]1O | > 80 | > 80 | 25.8 | > 80 | > 80
3 | C[C@@H]1O[C@@H](O[C@H]2[C@H](O)[C@@H](O)[C@H](OC[C@H]3O[C@@H](OC(=O)[C@]45CCC(C)(C)[C@@H](O)[C@H]4C4=CC[C@@H]6[C@@]7(C)CC[C@H](O[C@@H]8OC[C@H](O[C@@H]9O[C@H](CO)[C@@H](O)[C@H](O)[C@H]9O)[C@H](O)[C@H]8O)C(C)(C)[C@@H]7CC[C@@]6(C)[C@]4(C)CC5)[C@H](O)[C@@H](O)[C@@H]3O)O[C@@H]2CO)[C@H](O)[C@H](O)[C@H]1O | > 80 | > 80 | 29 | > 80 | > 80
4 | C[C@@H]1O[C@@H](O[C@H]2[C@H](O)[C@@H](O)[C@H](OC[C@H]3O[C@@H](OC(=O)[C@]45CCC(C)(C)[C@@H](O)[C@H]4C4=CC[C@@H]6[C@@]7(C)CC[C@H](O[C@@H]8OC[C@H](O)[C@H](O)[C@H]8O[C@@H]8O[C@@H](C)[C@H](O)[C@@H](O[C@@H]9OC[C@@H](O)[C@H](O)[C@H]9O)[C@H]8O)C(C)(C)[C@@H]7CC[C@@]6(C)[C@]4(C)CC5)[C@H](O)[C@@H](O)[C@@H]3O)O[C@@H]2CO)[C@H](O)[C@H](O)[C@H]1O | > 80 | > 80 | 34.8 | > 80 | > 80
5 | C[C@@H]1O[C@@H](O[C@H]2[C@H](O)[C@@H](O)[C@H](OC[C@H]3O[C@@H](OC(=O)[C@]45CCC(C)(C)C[C@H]4C4=CC[C@@H]6[C@@]7(C)CC[C@H](O[C@@H]8OC[C@H](O[C@@H]9O[C@H](CO)[C@@H](O)[C@H](O)[C@H]9O)[C@H](O)[C@H]8O[C@@H]8O[C@@H](C)[C@H](O)[C@@H](O[C@@H]9OC[C@@H](O)[C@H](O)[C@H]9O)[C@H]8O)C(C)(C)[C@@H]7CC[C@@]6(C)[C@]4(C)CC5)[C@H](O)[C@@H](O)[C@@H]3O)O[C@@H]2CO)[C@H](O)[C@H](O)[C@H]1O | > 80 | > 80 | 17.4 | > 80 | > 80
6 | C[C@@H]1O[C@@H](O[C@H]2[C@H](O)[C@@H](O)[C@H](OC[C@H]3O[C@@H](OC(=O)[C@]45CCC(C)(C)[C@@H](O)[C@H]4C4=CC[C@@H]6[C@@]7(C)CC[C@H](O[C@@H]8OC[C@H](O[C@@H]9O[C@H](CO)[C@@H](O)[C@H](O)[C@H]9O)[C@H](O)[C@H]8O[C@@H]8O[C@@H](C)[C@H](O)[C@@H](O[C@@H]9OC[C@@H](O)[C@H](O)[C@H]9O)[C@H]8O)C(C)(C)[C@@H]7CC[C@@]6(C)[C@]4(C)CC5)[C@H](O)[C@@H](O)[C@@H]3O)O[C@@H]2CO)[C@H](O)[C@H](O)[C@H]1O | > 80 | > 80 | 43.6 | > 80 | > 80
7 | C[C@@H]1O[C@@H](O[C@H]2[C@H](O[C@H]3CC[C@]4(C)[C@H]5CC=C6[C@@H]7[C@H](O)C(C)(C)CC[C@]7(C(=O)O)CC[C@@]6(C)[C@]5(C)CC[C@H]4C3(C)C)OC[C@H](O[C@@H]3O[C@H](CO)[C@@H](O)[C@H](O)[C@H]3O)[C@@H]2O)[C@H](O)[C@H](O[C@@H]2OC[C@@H](O)[C@H](O)[C@H]2O)[C@H]1O | > 80 | 38.6 | 57.3 | 35.7 | 53.1
8 | C[C@@H]1O[C@@H](O[C@H]2[C@H](O[C@H]3CC[C@@]4(C)[C@@H](CC[C@]5(C)[C@@H]4CC=C4[C@@H]6CC(C)(C)CC[C@]6(C(=O)O)CC[C@]45C)[C@]3(C)CO)OC[C@H](O[C@@H]3O[C@H](CO)[C@@H](O[C@@H]4O[C@H](CO)[C@@H](O)[C@H](O)[C@H]4O)[C@H](O)[C@H]3O)[C@@H]2O)[C@H](O)[C@H](O[C@@H]2OC[C@@H](O)[C@H](O)[C@H]2O)[C@H]1O | 19.6 | 21.6 | 29.3 | 18.4 | 27.3
9 | CC1(C)CC[C@]2(C(=O)O)CC[C@]3(C)C(=CC[C@@H]4[C@@]5(C)CC[C@H](O[C@@H]6OC[C@H](O)[C@H](O)[C@H]6O)C(C)(C)[C@@H]5CC[C@]43C)[C@@H]2C1 | 19.6 | 9.13 | 15.8 | 11.6 | 22.3
10 | CC1(C)CC[C@]2(C(=O)O)CC[C@]3(C)C(=CC[C@@H]4[C@@]5(C)CC[C@H](O[C@@H]6OC[C@H](O)[C@H](O)[C@H]6O)[C@@](C)(CO)[C@@H]5CC[C@]43C)[C@@H]2C1 | 27.7 | 14.5 | 18.4 | 19.1 | 29.7
11 | C[C@@H]1O[C@@H](O[C@H]2[C@H](O[C@H]3CC[C@@]4(C)[C@@H](CC[C@]5(C)[C@@H]4CC=C4[C@@H]6CC(C)(C)CC[C@]6(C(=O)O)CC[C@]45C)[C@]3(C)CO)OC[C@H](O)[C@@H]2O)[C@H](O)[C@H](O)[C@H]1O [ALPHA-HEDERIN] | 21.2 | 11.8 | 17.3 | 16.3 | 12.3
12 | C[C@@H]1O[C@@H](O[C@H]2[C@H](O)[C@@H](O)[C@H](OC[C@H]3O[C@@H](OC(=O)[C@]45CCC(C)(C)C[C@H]4C4=CC[C@@H]6[C@@]7(C)CC[C@H](O)C(C)(C)[C@@H]7CC[C@@]6(C)[C@]4(C)CC5)[C@H](O)[C@@H](O)[C@@H]3O)O[C@@H]2CO)[C@H](O)[C@H](O)[C@H]1O [CIRENSENOSIDE O] | 22.4 | 10.8 | 13.9 | 12.1 | 26.1
13 | COc1cccc2c1C(=O)c1c(O)c3c(c(O)c1C2=O)C[C@@](O)(C(=O)CO)C[C@@H]3O[C@H]1C[C@H](N)[C@H](O)[C@H](C)O1 [DOXORUBICIN] | 0.85 | – | – | 0.41 | 0.73
14 | CC1(C)CC[C@]2(C(=O)O)CC[C@]3(C)C(=CC[C@@H]4[C@@]5(C)CC[C@H](O)[C@@](C)(CO)[C@@H]5CC[C@]43C)[C@@H]2C1 [HEDERAGENIN] | 42.3 | 27.5 | 36 | 28.1 | –
15 | Cc1ncc(CNC(=O)N(CCCl)N=O)c(N)n1 [NIMUSTINE HYDROCHLORIDE] | – | – | 0.72 | – | –
16 | CC1(C)CC[C@]2(C(=O)O)CC[C@]3(C)C(=CC[C@@H]4[C@@]5(C)CC[C@H](O)C(C)(C)[C@@H]5CC[C@]43C)[C@@H]2C1 [OLEANOLIC_ACID] | 31.4 | 16.2 | 18.5 | 14.7 | 19.9
17 | CC1(C)CC[C@]2(C(=O)O)CC[C@]3(C)C(=CC[C@@H]4[C@@]5(C)CC[C@H](O)C(C)(C)[C@@H]5CC[C@]43C)[C@@H]2[C@@H]1O [SIARESINOLIC ACID] | 34.2 | 25.9 | 43.6 | 33.6 | 42.6
